Earlier results on one substance are cited in patent US20220249637A1, “COMBINATION THERAPY OF A CELL-MEDIATED CYTOTOXIC THERAPY AND AN INHIBITOR OF A PROSURVIVAL BCL2 FAMILY PROTEIN” (Juno Therapeutics, Inc., priority 2019, published 2022).

Series [1] relates to CD3+CD4+ and CD3+CD8+ T cells. The note with it: mouse, in vivo; cited from earlier work.
The test system of another series is CD3+ cells. The following applies: human, in vivo; cited from earlier work.

Regarding navitoclax, the “CD3+CD4+ and CD3+CD8+ T cells in the peripheral blood” value in series [1] is “induced a relative and absolute reduction”. In the series on CD3+ cells, the “average decrease of CD3+ cells” value was 241 cells/μL and the “decrease in T cells at final visits” value is listed as “maintained”.
